{"source": "patent US20230233572A1", "about": "“OPHTHALMIC COMPOSITIONS COMPRISING A COMBINATION OF FLUOROQUINOLONE ANTIBACTERIAL AGENT AND AN ANTI-INFLAMMATORY AGENT” (priority 2020, published 2023)", "origin": "cited, not measured here", "test_system": "corneal surface of rabbit eyes", "details": "in vivo"}
{"smiles": "CC(O)COC[C@H]1O[C@@H]2O[C@H]3[C@H](O)[C@@H](O)[C@@H](O[C@H]4[C@H](O)[C@@H](O)[C@@H](O[C@H]5[C@H](O)[C@@H](O)[C@@H](O[C@H]6[C@H](O)[C@@H](O)[C@@H](O[C@H]7[C@H](O)[C@@H](O)[C@@H](O[C@H]8[C@H](O)[C@@H](O)[C@@H](O[C@H]1[C@H](O)[C@H]2O)O[C@@H]8COCC(C)O)O[C@@H]7COCC(C)O)O[C@@H]6COCC(C)O)O[C@@H]5COCC(C)O)O[C@@H]4COCC(C)O)O[C@@H]3COCC(C)O", "note": "(stereo partly drawn) [HP-β-CD, hydroxypropyl-β-cyclodextrin]", "values": [{"measurement": "Tolerance by the corneal surface", "result": "well tolerated"}, {"measurement": "Toxicity or irritation in rabbit eyes", "result": "not to be toxic or irritating"}]}
